# Laboratory results published in patent publication US10620222B2, “Electrified compositions for determining the risk of developing adolescent idiopathic scoliosis through the use of GI protein receptor” (CHU Sainte-Justine, priority 2008, dated 2020).
# Several values for one entry are separate records, joined by “and”; a condition that tells them apart may be missing. Equal values may be shown once.
# Columns and labels:
# [1] = system: receptors coupled to Gi proteins expressed on osteoblasts; assay: Cellular Dielectric Spectroscopy (CDS, CELLKEY) response to Gi-coupled receptor ligands in osteoblasts from control and AIS subjects; format: cell-based, human; parameters: % of control / % of control signal, Group 1, min diff. / % of control signal, Group 2, min diff. / % of control signal, Group 3, min diff.: concentration or dose not given beside the values; dZiec value / Absolute dZiec, control value of max diff. (maximal control value): unit not given here; details: for dZiec value: n1, n2 of Exper. 1-3
# [2] = system: Gi protein-mediated pathway in MG63 osteoblast cell line; format: cell-based; details: 100 ng/mL PTX 16 h, stimulation with 10 μM ligand, 37° C., 5 min
# Method: The ability of CDS to detect the relative part of the Gi protein-mediated pathway in melatonin signaling was determined by blocking this pathway with pertussis toxin (PTX). This toxin ADP-ribosylates the a subunit of the heterotrimeric Gi protein and thereby prevents its activity. The MG63 osteoblast cell line was serum-starved for 16 h in the absence or presence of 100 ng/mL of PTX to inhibit the αi subunit of Gi protein. […] Cellular responses were measured with CELLKEY™ label-free cellular analysis system as described in the Material and Methods section.
# [3] = system: melatonin signaling in osteoblasts; assay: cAMP assay in forskolin pre-treated osteoblasts; format: cell-based, human; details: osteoblasts from IS patients; increasing concentration of melatonin; FIG. 2
# Method: Osteoblasts from patients with IS and control subjects were seeded in quadruplicate on 24-well plates (1×10^5 cells per well) and tested as previously described (Moreau A, Wang D S, Forget S et al. Melatonin Signaling Dysfunction in Adolescent Idiopathic Scoliosis. Spine 2004; 29:1772-81). All assays were performed in duplicate.
# Cells were then challenged with increasing concentration of melatonin and the functional status of melatonin signaling was estimated by the ability of melatonin to reduce cAMP levels. Data were normalized with cAMP production induced by forskolin in the absence of melatonin. […] Furthermore, the extent of this production was different between the three IS patients.
# [4] = osteoblasts of control subjects, 300 μM ligand, from FIGS. 11A-11F
smiles,measurement,setting,value
"COc1ccc2[nH]cc(CCNC(C)=O)c2c1 [Melatonin, melatonin]","CDS response, dependence on concentration","[1]; osteoblasts from both control and IS patients, FIGS. 4A-4C",concentration-dependent manner
same,% of control,[1]; osteoblasts of AIS#1020 (Group 3) relative to CTR#60,52.6% and 59.8% and 63.3% and 58.1% and 58% and 59.2%
same,dZiec value,"[1]; osteoblasts of AIS#1020 (Group 3), 300 μM ligand",29.38 and 31.88 and 40.33 and 39.33 and 34.34 and 36.12
same,% of control,[1]; osteoblasts of AIS#1198 (Group 3 in Table II) relative to CTR#69,39.3% and 42.7% and 35.6% and 27.7% and 33.3% and 34.7%
same,dZiec value,"[1]; osteoblasts of AIS#1198 (Group 3 in Table II), 300 μM ligand",23.94 and 31.44 and 31.91 and 25.91 and 27.41 and 29.19
same,% of control,[1]; osteoblasts of AIS#1468 (Group 3) relative to CTR#61,65.3% and 70% and 67.8% and 64.6% and 66.4% and 67.2%
same,dZiec value,"[1]; osteoblasts of AIS#1468 (Group 3), 300 μM ligand",44.92 and 46.42 and 54.79 and 49.34 and 51.12
same,% of control,[1]; osteoblasts of AIS#1474 (Group 1) relative to CTR#60,29.6% and 24.4% and 23.8% and 22.4% and 29.3% and 26.4%
same,dZiec value,"[1]; osteoblasts of AIS#1474 (Group 1), 300 μM ligand",16.53 and 13.03 and 15.18 and 17.34 and 16.12
same,% of control,[1]; osteoblasts of AIS#1488 (Group 1) relative to CTR#69,12.9% and 15.3% and 12.2% and 11.7% and 15% and 14.4%
same,dZiec value,"[1]; osteoblasts of AIS#1488 (Group 1), 300 μM ligand",9.79 and 11.29 and 10.91 and 12.34 and 12.12
same,% of control,[1]; osteoblasts of AIS#1513 (Group 3) relative to CTR#61,56.5% and 59.4% and 62.9% and 61.1% and 59.7% and 60.6%
same,dZiec value,"[1]; osteoblasts of AIS#1513 (Group 3), 300 μM ligand",38.90 and 39.40 and 50.81 and 51.81 and 44.34 and 46.12
same,% of control,[1]; osteoblasts of AIS#1549 (Group 1) relative to CTR#61,25.1% and 25.3% and 22.8% and 24.1% and 23.3%
same,dZiec value,"[1]; osteoblasts of AIS#1549 (Group 1), 300 μM ligand",17.30 and 16.80 and 18.41 and 20.41 and 17.34 and 19.12
same,% of control,[1]; osteoblasts of AIS#1550 (Group 2) relative to CTR#60,50.7% and 57.7% and 46.2% and 47.9% and 49.5% and 51%
same,dZiec value,"[1]; osteoblasts of AIS#1550 (Group 2), 300 μM ligand",28.28 and 30.78 and 29.43 and 32.43 and 29.34 and 31.12
same,dZiec value,"[1]; osteoblasts of control CTR#60, 300 μM ligand",55.81/— and 53.31/— and 63.72/— and 67.72/— and 59.25/— and 61.03/—
same,dZiec value,"[1]; osteoblasts of control CTR#61, 300 μM ligand",68.79/— and 66.29/— and 80.84/— and 84.84/— and 74.30/— and 76.08/—
same,dZiec value,"[1]; osteoblasts of control CTR#69, 300 μM ligand",76.12/— and 73.62/— and 89.58/— and 93.58/— and 82.34/— and 84.12/—
same,"Absolute dZiec, control value of max diff. (maximal control value)",[1]; [4],83
same,"Absolute dZiec, control value of min diff. (minimal control value)",[1]; [4],60
same,"Absolute dZiec, Group 1, max diff. (group value)","[1]; osteoblasts, AIS Group 1 value of max diff., 300 μM ligand, from FIGS. 11A-11F",11
same,"Absolute dZiec, Group 1, min diff. (group value)","[1]; osteoblasts, AIS Group 1 value of min diff., 300 μM ligand, from FIGS. 11A-11F",18
same,"% of control signal, Group 1, max diff.","[1]; osteoblasts, AIS Group 1 vs maximal control value",13%
same,"% of control signal, Group 1, min diff.","[1]; osteoblasts, AIS Group 1 vs minimal control value",30%
same,"Absolute dZiec, Group 2, max diff. (group value)","[1]; osteoblasts, AIS Group 2 value of max diff., 300 μM ligand, from FIGS. 11A-11F",28
same,"Absolute dZiec, Group 2, min diff. (group value)","[1]; osteoblasts, AIS Group 2 value of min diff., 300 μM ligand, from FIGS. 11A-11F",37
same,"% of control signal, Group 2, max diff.","[1]; osteoblasts, AIS Group 2 vs maximal control value",34%
same,"% of control signal, Group 2, min diff.","[1]; osteoblasts, AIS Group 2 vs minimal control value",62%
same,"Absolute dZiec, Group 3, max diff. (group value)","[1]; osteoblasts, AIS Group 3 value of max diff., 300 μM ligand, from FIGS. 11A-11F",45
same,"Absolute dZiec, Group 3, min diff. (group value)","[1]; osteoblasts, AIS Group 3 value of min diff., 300 μM ligand, from FIGS. 11A-11F",50
same,"% of control signal, Group 3, max diff.","[1]; osteoblasts, AIS Group 3 vs maximal control value",54%
same,"% of control signal, Group 3, min diff.","[1]; osteoblasts, AIS Group 3 vs minimal control value",83%
same,magnitude of CDS response in IS osteoblasts vs control,"[1]; osteoblasts, FIGS. 4A-4C",significantly lower
same,inhibition extent of the CDS response by PTX treatment,[2],about 75%
same,"cAMP production after forskolin stimulation, IS vs healthy control osteoblasts",[3],high cAMP production
